Assay results: ChEMBL document CHEMBL1201862, “PubChem BioAssay data set” (2004)
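Where inhibition never reached the appropriate level, the endpoint shown equals the highest concentration tested. Otherwise, values were interpolated linearly from a five-concentration, 48-hour dose response in 96-well plates. The concentration for 50% growth inhibition is given as GI50.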 Active and inactive are the calls of the source. Cut-off read from the data, not from the text of the source: active = GI50 up to about 1.1 µM and inactive = higher.

Columns and labels:
Test in all cases: NCI-60 cell line screen, 48 h
PC-3 = test system: PC-3
TK-10 = test system: TK-10
SNB-19 = test system: SNB-19
EKVX = test system: EKVX
OVCAR-3 = test system: OVCAR-3
LOX IMVI = test system: LOX IMVI
NCI/ADR-RES = test system: NCI/ADR-RES
HCT-116 = test system: HCT-116
CAKI-1 = test system: CAKI-1
SN12C = test system: SN12C
KM12 = test system: KM12
OVCAR-8 = test system: OVCAR-8
Malme-3M = test system: Malme-3M
HL-60 = test system: HL-60
OVCAR-4 = test system: OVCAR-4
HOP-62 = test system: HOP-62
ACHN = test system: ACHN
OVCAR-5 = test system: OVCAR-5
MCF7 = test system: MCF7
NCI-H23 = test system: NCI-H23
UO-31 = test system: UO-31
SF-268 = test system: SF-268
HCC 2998 = test system: HCC 2998
UACC-62 = test system: UACC-62
CCRF-CEM = test system: CCRF-CEM
HOP-92 = test system: HOP-92
NCI-H460 = test system: NCI-H460
NCI-H226 = test system: NCI-H226
NCI-H522 = test system: NCI-H522
M14 = test system: M14
RPMI-8226 = test system: RPMI-8226
SK-OV-3 = test system: SK-OV-3
DU-145 = test system: DU-145
IGROV-1 = test system: IGROV-1
MDA-N = test system: MDA-N
K562 = test system: K562
BT-549 = test system: BT-549
U-251 = test system: U-251
MDA-MB-435 = test system: MDA-MB-435
HCT-15 = test system: HCT-15
SF-539 = test system: SF-539
T47D = test system: T47D
SK-MEL-5 = test system: SK-MEL-5
MOLT-4 = test system: MOLT-4
Hs-578T = test system: Hs-578T
A498 = test system: A498
HT-29 = test system: HT-29
MDA-MB-231 = test system: MDA-MB-231
SW-620 = test system: SW-620
SK-MEL-2 = test system: SK-MEL-2
SK-MEL-28 = test system: SK-MEL-28
A549 = test system: A549
COLO 205 = test system: COLO 205
786-0 = test system: 786-0
UACC-257 = test system: UACC-257
SF-295 = test system: SF-295
RXF 393 = test system: RXF 393
SR = test system: SR
SNB-75 = test system: SNB-75

In the case of `Nc1nc(-c2cc(-c3cccc4ccccc34)nc(N)n2)cc(-c2cccc3ccccc23)n1`, the GI50 (PC-3) is reported as > 100 µM (inactive), the GI50 (TK-10) is reported as > 100 µM (inactive) and the GI50 (SNB-19) is reported as > 100 µM (inactive). For the same molecule, the GI50 (EKVX) was > 100 µM (inactive), the GI50 (OVCAR-3) was > 100 µM (inactive) and the GI50 (LOX IMVI) was > 100 µM (inactive). The GI50 (NCI/ADR-RES) was > 100 µM (inactive), the GI50 (HCT-116) was > 100 µM (inactive) and the GI50 (CAKI-1) was > 100 µM (inactive). The GI50 (SN12C) was > 100 µM (inactive), the GI50 (KM12) was > 100 µM (inactive) and the GI50 (OVCAR-8) was > 100 µM (inactive). The GI50 (Malme-3M) was > 100 µM (inactive), the GI50 (HL-60) was > 100 µM (inactive) and the GI50 (OVCAR-4) was > 100 µM (inactive). The GI50 (HOP-62) was > 100 µM (inactive), the GI50 (ACHN) was > 100 µM (inactive) and the GI50 (OVCAR-5) was > 100 µM (inactive). The GI50 (MCF7) was > 100 µM (inactive), the GI50 (NCI-H23) was > 100 µM (inactive) and the GI50 (UO-31) was > 100 µM (inactive). For the same molecule, the GI50 (SF-268) was > 100 µM (inactive), the GI50 (HCC 2998) was > 100 µM (inactive) and the GI50 (UACC-62) was > 100 µM (inactive). For the same molecule, the GI50 (CCRF-CEM) was > 100 µM (inactive), the GI50 (HOP-92) was > 100 µM (inactive) and the GI50 (NCI-H460) was > 100 µM (inactive). For the same molecule, the GI50 (NCI-H226) was > 100 µM (inactive), the GI50 (NCI-H522) was > 100 µM (inactive) and the GI50 (M14) was > 100 µM (inactive). For the same molecule, the GI50 (RPMI-8226) was > 100 µM (inactive), the GI50 (SK-OV-3) was > 100 µM (inactive) and the GI50 (DU-145) was > 100 µM (inactive). For the same molecule, the GI50 (IGROV-1) was > 100 µM (inactive), the GI50 (MDA-N) was > 100 µM (inactive) and the GI50 (K562) was > 100 µM (inactive). For the same molecule, the GI50 (BT-549) was > 100 µM (inactive), the GI50 (U-251) was > 100 µM (inactive) and the GI50 (MDA-MB-435) was > 100 µM (inactive). For the same molecule, the GI50 (HCT-15) was over 100 µM, the GI50 (SF-539) was > 100 µM (inactive) and the GI50 (T47D) was > 100 µM (inactive). For the same molecule, the GI50 (SK-MEL-5) was > 100 µM (inactive), the GI50 (MOLT-4) was > 100 µM (inactive) and the GI50 (Hs-578T) was > 100 µM (inactive). For the same molecule, the GI50 (A498) was > 100 µM (inactive), the GI50 (HT-29) was > 100 µM (inactive) and the GI50 (MDA-MB-231) was > 100 µM (inactive). For the same molecule, the GI50 (SW-620) was > 100 µM (inactive), the GI50 (SK-MEL-2) was > 100 µM (inactive) and the GI50 (SK-MEL-28) was > 100 µM (inactive). For the same molecule, the GI50 (A549) was > 100 µM (inactive), the GI50 (COLO 205) was > 100 µM (inactive) and the GI50 (786-0) was > 100 µM (inactive). The GI50 (UACC-257) was > 100 µM (inactive), the GI50 (SF-295) was 65.8 µM (inactive) and the GI50 (RXF 393) was > 100 µM (inactive). For the same molecule, the GI50 (SR) was > 100 µM (inactive).

With `CC(C)(Cl)C(Br)CC/C(=C/CCl)CBr.CC(C)(Cl)C(Br)CC/C(=C\CCl)CBr` (stereo not given) the GI50 (PC-3) was 2.61 µM (inactive), the GI50 (TK-10) was 2.26 µM (inactive) and the GI50 (SNB-19) was 2.1 µM (inactive). For the same molecule, the GI50 (EKVX) was 8.97 µM (inactive), the GI50 (OVCAR-3) was 1.87 µM (inactive) and the GI50 (NCI/ADR-RES) was 3.23 µM (inactive). For the same molecule, the GI50 (HCT-116) was 1.77 µM (inactive), the GI50 (SN12C) was 2.49 µM (inactive) and the GI50 (KM12) was 1.83 µM (inactive). The GI50 (OVCAR-8) was 2.06 µM (inactive), the GI50 (Malme-3M) was 1.71 µM (inactive) and the GI50 (HL-60) was 0.802 µM (active). The GI50 (OVCAR-4) was 2.34 µM (inactive), the GI50 (HOP-62) was 4.1 µM (inactive) and the GI50 (ACHN) was 2.77 µM (inactive). The GI50 (OVCAR-5) was 8.89 µM (inactive), the GI50 (MCF7) was 0.733 µM (active) and the GI50 (NCI-H23) was 1.91 µM (inactive). For the same molecule, the GI50 (UO-31) was 1.6 µM (inactive), the GI50 (SF-268) was 1.8 µM (inactive) and the GI50 (HCC 2998) was 1.58 µM (inactive). For the same molecule, the GI50 (UACC-62) was 1.93 µM (inactive), the GI50 (CCRF-CEM) was 1.32 µM (inactive) and the GI50 (HOP-92) was 2.07 µM (inactive). For the same molecule, the GI50 (NCI-H460) was 2.02 µM (inactive), the GI50 (SNB-75) was 2.9 µM (inactive) and the GI50 (NCI-H226) was 18.7 µM (inactive). For the same molecule, the GI50 (NCI-H522) was 0.998 µM (active), the GI50 (M14) was 1.9 µM (inactive) and the GI50 (RPMI-8226) was 1.17 µM (inactive). For the same molecule, the GI50 (SK-OV-3) was 16.9 µM (inactive), the GI50 (DU-145) was 3.32 µM (inactive) and the GI50 (IGROV-1) was 2.31 µM (inactive). For the same molecule, the GI50 (MDA-N) was 1.64 µM (inactive), the GI50 (K562) was 1.72 µM (inactive) and the GI50 (BT-549) was 3.05 µM (inactive). The GI50 (U-251) was 2.21 µM (inactive), the GI50 (MDA-MB-435) was 2 µM (inactive) and the GI50 (HCT-15) was 1.43 µM. The GI50 (SF-539) was 1.88 µM (inactive), the GI50 (T47D) was 1.08 µM (active) and the GI50 (SK-MEL-5) was 3.1 µM (inactive). The GI50 (MOLT-4) was 1.34 µM (inactive), the GI50 (Hs-578T) was 3.67 µM (inactive) and the GI50 (A498) was 4.94 µM (inactive). For the same molecule, the GI50 (HT-29) was 1.85 µM (inactive), the GI50 (MDA-MB-231) was 1.74 µM (inactive) and the GI50 (SW-620) was 1.92 µM (inactive). The GI50 (SK-MEL-2) was 3.21 µM (inactive), the GI50 (SK-MEL-28) was 2.06 µM (inactive) and the GI50 (A549) was 14.4 µM (inactive). The GI50 (COLO 205) was 2.4 µM (inactive), the GI50 (786-0) was 1.86 µM (inactive) and the GI50 (UACC-257) was 2.5 µM (inactive). For the same molecule, the GI50 (SF-295) was 3.51 µM (inactive), the GI50 (RXF 393) was 2.62 µM (inactive) and the GI50 (SR) was 1.29 µM (inactive).
